Measurements taken from a melting point compilation (Tetko et al.; mined from patent text by program, amines drawn as free bases though some values may be those of a salt).

First: C=C(c1cc(F)ccc1OCc1ccc(Cl)cc1Cl)n1ccnc1
Second: COc1ccc(C2=NC(NC(=O)CCc3ccc(Cl)cc3Cl)C(=O)N(C)c3ccccc32)cc1 (stereo not drawn)
The melting point of the first is lower: 118 to 120 °C for the first, 188 to 189 °C for the second.

First: Cc1cccc(NC(=O)NC2N=C(c3ccccc3F)c3ccccc3N(Cc3ncccc3C(=O)N3CCCC3)C2=O)c1 (racemic)
Second: Cc1csc(NC(=O)C2=C(O)c3ccccc3N(c3ccccc3)C2)n1
The melting point of the first is lower: 153 to 155 °C for the first, 228 to 230 °C for the second.

First: COc1ccc(CNC(=O)c2cc3c(=O)n(CCOc4ccc(Br)cc4)c(=O)n(C)c3s2)cc1
Second: Cc1oc(-c2ccccc2)nc1COc1ccc(CC2SC(=O)NC2=O)cc1 (stereo not drawn)
The melting point of the first is higher: 184 to 185 °C for the first, 162 to 163 °C for the second.

First: Cc1cc(-c2ncn3c(C(F)(F)F)cc(-c4ccc(C(F)(F)F)c(C(F)(F)F)c4)nc23)ccn1
Second: CC(C)(C)c1ccc(-c2c(-c3ccncc3)sc3nc(=O)cc(N)n23)cc1
The melting point of the first is lower: 218 °C for the first, 259 to 262 °C for the second.

First: C#CCOc1ccc(S(=O)(=O)C2(C(=O)O)CCN(Cc3ccc(Cl)cc3)CC2)cc1
Second: CC(=NNc1ccc(C(F)(F)F)cc1)C(=O)NCc1ccc(Cl)cc1
The melting point of the first is higher: 205 °C for the first, 124 to 125 °C for the second.

CCCc1c(CSc2nnc(SCCCCCC(=O)O)s2)ccc(C(C)=O)c1O and CCCc1c(OCC(O)CSc2nnc(SCC(=O)O)s2)ccc(C(C)=O)c1O (stereo not drawn) cannot be ordered by melting point: 67 to 74 °C for the first, 72 to 75 °C for the second.

First: CCOC(=O)c1sc(-c2ccccc2)nc1O
Second: COC(=O)CCc1sc(Sc2ccc(O)cc2)nc1-c1ccccc1
The melting point of the first is lower: 114 to 116 °C for the first, 153 to 155 °C for the second.

First: CCOC(=O)c1ccc(C#Cc2ccc3c(c2)C(C)(C)CCC3(C)C)cc1
Second: COC(=O)COc1ccc(-c2ccc(C(=O)OCc3ccccc3)cc2)cc1-c1ccc2c(c1)C(C)(C)CCC2(C)C
The melting point of the first is higher: 137 to 138 °C for the first, 104 to 106 °C for the second.

First: CS(=O)(=O)Nc1cc2occc(=O)c2cc1Oc1ccccc1N
Second: Cc1cc(C)c2cc(-c3ccccc3)c(=O)[nH]c2n1
The melting point of the first is lower: 238 to 240 °C for the first, 258 to 260 °C for the second.

Compared with C#CCOC1(Nc2cccc(OCC3CO3)c2)N=CC(Br)=CN1 (stereo not drawn), COc1cccc(NC=C2C(=O)OC(C)(C)OC2=O)c1 is lower in melting point: 173 °C for the first, 108 °C for the second.

Compared with CCCCCOC1CCN(S(=O)(=O)C=Cc2ccccc2)C1=O (stereo not drawn), CCCCCS(=O)(=O)NC(=O)/C=C/c1ccc(OCCOC)cc1OCc1ccc(Cl)cc1Cl is higher in melting point: 66 to 68 °C for the first, 138 °C for the second.

Compared with CC(=O)Nc1ccccc1OCCO, CCC(=O)NNC(=O)NCCOc1ccccc1 is higher in melting point: 89 to 91 °C for the first, 178 to 183 °C for the second.

First: O=C1CCC(N2C(=O)c3cccc(OCc4ccc(CN5CC6CCC(C5)O6)cc4)c3C2=O)C(=O)N1 (stereo not drawn)
Second: CCc1ccc(-c2oc3cccc4c3c2C=CC4=O)cc1
The melting point of the first is higher: 196 to 198 °C for the first, 186 °C for the second.

First: C=CCOC(=O)C(C)N(C(=O)CCl)c1c(C)cccc1C (stereo not drawn)
Second: CCOC(=O)C(C)c1cnc(Cl)c2cc(OC)ccc12 (stereo not drawn)
The melting point of the first is lower: 55 to 56 °C for the first, 126 to 128 °C for the second.

First: O=C1N[C@H](Cc2ccc(C(F)(F)F)o2)[C@H](c2ccc(F)cc2)O1 (racemic)
Second: CC(C)c1c(/C=C/[C@@H]2C[C@@H](O)CC(=O)O2)n(-c2ccc(F)cc2)c(=O)c2ccccc12
The melting point of the first is lower: 177 to 179 °C for the first, 207 to 209 °C for the second.

Going from CN1CC(=O)N(c2cc(Cl)nc(Cl)c2)C1=O to CS(=O)(=O)N1CCN2C(=O)N(c3cc(Cl)cc(Cl)c3)C(=O)C2(Cc2ccc(Br)cc2)C1 (stereo not drawn), the melting point rises from 134 °C to 229 °C.

Compared with O=C(Nc1n[nH]c(=S)s1)N[C@@H](Cc1c(F)c(F)c(F)c(F)c1F)C(=O)N1CCN(c2ccccn2)CC1, CCc1noc(NC(=O)N2CCN(c3ccnc(-c4cccc(F)c4F)n3)CC2)c1C is lower in melting point: 233 to 235 °C for the first, 188 to 189 °C for the second.

First: COc1cc(F)c(C=O)cc1O
Second: COC(=O)c1cc(O)ccc1OC
The melting point of the first is higher: 153 to 154 °C for the first, 110 to 112 °C for the second.

First: COc1cc2ccccc2cc1NC(=O)N1CCN(c2cc(C)cc(C)c2)CC1
Second: CN1CCN(C(=O)OC2c3ccccc3C(=O)N2c2ccc3ccc(C#N)nc3n2)CC1 (stereo not drawn)
The melting point of the first is lower: 105 to 107 °C for the first, 266 to 268 °C for the second.

Compared with COc1ccc2c(c1)Sc1cc(OC)ccc1N2CCC#N, COc1ccc(CC(O)c2cc(OC)cc(OC)c2)cc1 (stereo not drawn) is lower in melting point: 111 to 113 °C for the first, 101 to 102 °C for the second.

First: Cc1cc(C(=O)O)cc2c3ccccc3n(Cc3ccccc3)c12
Second: CCc1c(-c2ccc(OCc3ccccc3)cc2)c2cc(C(=O)O)c3cccc1n32
The melting point of the first is higher: greater than 240 °C for the first, 223 to 224 °C for the second.

Compared with Cc1nc2sc(C)c(C)n2c(=O)c1CCN1CCC(C(=O)c2ccc(F)cc2)CC1, C[C@@]1(CN2CCN(C(=O)OCc3ccc(F)cc3)CC2)Cn2cc([N+](=O)[O-])nc2O1 is higher in melting point: 159 °C for the first, 167 to 169 °C for the second.

Compared with Cn1c(-c2ccccc2Sc2nc3ccccc3[nH]2)nc2ccccc21, O=C(Nc1nc2ccccc2c(=O)n1-c1ccccc1)c1ccccc1 is lower in melting point: 246 to 247 °C for the first, 185 to 188 °C for the second.

First: CCCOc1c(OC)cc([C@H]2CC[C@H](c3cc(OC)c(OC)c(OC)c3)O2)cc1S(=O)(=O)CCO (relative stereo)
Second: COc1cc(Nc2nccc(Nc3ccc(OCC(=O)OC(C)(C)C)cc3)n2)cc(OC)c1OC
The melting point of the first is higher: 141 to 142 °C for the first, 139 °C for the second.

First: COc1ccc2c(c1OC(C)=O)N=CC1CCCN1C2=O (stereo not drawn)
Second: COc1ccc(C(=O)CC2CCCC2)c(Cl)c1Cl
The melting point of the first is higher: 144 to 146 °C for the first, 60 to 61.5 °C for the second.

First: CCO[C@@H](C)c1nnc([C@H](C)OCC)n1N[C@H](CC)C(OC)OC
Second: COC(=O)c1ccc2c(-c3cccc(OC)c3)nc(=O)n(C(C)C)c2c1
The melting point of the first is lower: 88 °C for the first, 164 to 167 °C for the second.

First: C=Cc1c(-c2ccccc2)coc1C(=O)NNC(=O)c1ccc(O)c(C#N)c1
Second: N#Cc1ccc(N(Cc2ccc(OS(N)(=O)=O)c(Cl)c2)n2cnnc2)cc1-c1ccccc1
The melting point of the first is lower: 170 to 174 °C for the first, 201 to 204 °C for the second.

First: CCCOC(=O)c1cn(C2CC2)c2nc(N3CCC(N)C3)c(F)cc2c1=O (stereo not drawn)
Second: CCOC(=O)c1c(O)c2cc(F)ccc2c(=O)n1CC(C)(C)C
The melting point of the first is higher: 125 to 126 °C for the first, 115 to 116 °C for the second.

First: CCCN(CCC)Cc1cnc(-c2ncn3c2CN(C)C(=O)c2ccccc2-3)o1
Second: CCOC(=O)c1cc(=O)c2c(OCC(O)COc3cccc(C)c3)cccc2o1 (stereo not drawn)
The melting point of the first is higher: 133 to 135 °C for the first, 72 to 74 °C for the second.

Compared with CSc1ccc(N)c(C#N)c1, Cc1cc(Sc2ccccc2)ccc1[N+](=O)[O-] is higher in melting point: 50 to 54 °C for the first, 69 to 75 °C for the second.

Compared with CCS(=O)(=O)CCc1ccc2[nH]cc(CC3CCCN3C)c2c1 (stereo not drawn), CCc1[nH]c(=O)[nH]c(=O)c1N1CCN(Cc2ccccc2)CC1 is higher in melting point: 59 to 62 °C for the first, 255 to 256 °C for the second.

Compared with O=c1[nH]c2ccc(OC3CCCC3)cc2n1C1CCCCC1, O=C1CCC(C2CCCCC2)CC1C(=S)Nc1ccccc1 (stereo not drawn) is lower in melting point: 242 °C for the first, 150 °C for the second.

First: COc1cncc(OC)c1CCCOc1cccnc1Oc1cccc(Br)c1
Second: COc1cccc(OC)c1C(=O)Nc1nnc(-c2nc3ccccc3s2)s1
The melting point of the first is lower: 106 to 154 °C for the first, greater than 260 °C for the second.

First: CC(=O)N1CCn2c1c(-c1ccccc1)c1ncccc1c2=O
Second: NCCc1cc(-c2ccccc2)n(-c2ccc(S(N)(=O)=O)cc2)n1
The melting point of the first is higher: 229 to 231 °C for the first, 189 to 192 °C for the second.

First: NCCOc1cccc2c1CC(=O)N2
Second: O=C1Cc2c(cc3ccccc3c2Cl)C(c2ccccc2F)N1 (stereo not drawn)
The melting point of the first is lower: 146 to 148 °C for the first, 206 to 209 °C for the second.

First: CCCCCCCCCCCCCCCCCCSC(C)CCO (stereo not drawn)
Second: COc1ccccc1SCC(=O)NCCCCCC(=O)O
The melting point of the first is lower: 35 to 38 °C for the first, 95 to 97 °C for the second.

First: COc1ccc(C(N)CC(=O)O)cc1OC (stereo not drawn)
Second: COC=C(C(=O)OC)c1cccc([N+](=O)[O-])c1
The melting point of the first is higher: 208 to 210 °C for the first, 101 to 103 °C for the second.

First: COc1ccc(C(OCC2(COS(=O)(=O)c3ccc(C)cc3)OC(n3ccc(=O)[nH]c3=O)C(O)C2O)(c2ccccc2)c2ccc(OC)cc2)cc1 (stereo not drawn)
Second: CCC(C)(C)c1ccc(OCCCNC(=O)c2cc(OS(=O)(=O)CCCOc3ccc([N+](=O)[O-])cc3)c3ccccc3c2O)c(C(C)(C)CC)c1
The melting point of the first is lower: 104 to 105 °C for the first, 140 to 141 °C for the second.

First: CC(C)(C)OC(=O)N1CCN(c2ccc(OCC3(C)CCn4cc([N+](=O)[O-])nc4O3)cc2)CC1 (stereo not drawn)
Second: COc1ccc(-c2ccc3c(c2)CC[C@H]2N(C)C(=O)CC[C@]32C)cc1
The melting point of the first is higher: 208 to 209 °C for the first, 150 °C for the second.

First: BrC(Br)(Br)c1nnnn1-c1ccccc1
Second: O=[N+]([O-])c1cnn2c(-c3ccncc3)ccnc12
The melting point of the first is lower: 141 to 142 °C for the first, 241 to 244 °C for the second.

First: COC(=O)c1cc2cc(OC)c(OC)cc2c(-c2ccnc(-n3c(=O)cc(OCC(=O)OCc4ccccc4)c4ccccc43)c2)c1C(=O)OC
Second: CCc1cccc(CC)c1NC(=O)C1c2ccccc2COc2ccc(C)cc21 (stereo not drawn)
The melting point of the first is lower: 186 to 189 °C for the first, 202 to 203 °C for the second.

First: CN1CC(CCCl)Oc2ncccc2C1=S (stereo not drawn)
Second: CN(CCN1CCC[C@@H](C(=O)O)C1)C1c2ccccc2CCc2ccccc21
The melting point of the first is lower: 134 to 136 °C for the first, 187 to 190 °C for the second.

First: N#CC1CN1C(=O)c1ccc2c(c1)OCO2 (stereo not drawn)
Second: Cn1c2cc(Cl)ccc2c2oc(C(=O)Cl)cc21
The melting point of the first is lower: 95 to 97 °C for the first, 154 to 156 °C for the second.

First: COCC(O)Cc1ccc(-c2ccc3cc(C(=O)O)ccc3c2)cc1C12CC3CC(CC(C3)C1)C2 (stereo not drawn)
Second: CN1CCc2cc(NC(=O)/C=C/c3ccc(C(C)(C)C)cc3)ccc21
The melting point of the first is higher: 240 to 242 °C for the first, 194 °C for the second.

First: COc1ccc2ncc(C#N)c(Nc3cc(O)c(Cl)cc3F)c2c1
Second: CNN1c2c(cc(Oc3ccc(F)cc3F)c(=O)n2NC)C=NC1NC1CCOCC1 (stereo not drawn)
The melting point of the first is higher: 228 to 230 °C for the first, 80.5 to 89.9 °C for the second.

First: C=C1CCC2(c3c[nH]cn3)Cc3ccccc3C12 (stereo not drawn)
Second: COc1cc2c(cc1O)CCC1C2CCC2(C)C(O)C=CC12 (stereo not drawn)
The melting point of the first is lower: 167 to 174 °C for the first, 191 to 193 °C for the second.

First: CNC(=O)CCCCCN(C)S(=O)(=O)c1ccc(Cl)c(COc2cccc3ccc(C)nc23)c1Cl
Second: NC(=O)c1nnn(Cc2ccc(S(=O)c3ccc(Cl)cc3)c(Cl)c2)c1N (stereo not drawn)
The melting point of the first is lower: 110 to 112 °C for the first, 237 to 238 °C for the second.

Compared with Cc1nc2c(s1)N(C(=O)c1cnoc1C)CCCC2, Cc1cc(C)c2c(c1)OCC2=O is lower in melting point: 117 to 118 °C for the first, 55 to 60 °C for the second.

First: C[C@H](Cn1ncc2ccc3c(c21)C=CCO3)O[Si](C)(C)C(C)(C)C
Second: CN(C)c1nc(Cl)nc(-n2ccnc2)n1
The melting point of the first is lower: 58 to 59 °C for the first, 88 to 92 °C for the second.
